Data taken from EP0044212B1, “Herbicidal o-alkylsulfonyloxy- and o-alkylsulfonylamino-benzenesulfonamides” (E.I. DU PONT DE NEMOURS AND COMPANY, priority 1980, dated 1982).

Legend:
Wild Oats [1] = test: Test F over-the-top soil/foliage treatment; format: in vivo, Avena fatua; design: scale not given here; settings: soil/foliage spray, ~14 days
Procedure: (§1) The test chemicals, dissolved in a non-phytotoxic solvent, were applied in an overall spray to the foliage and surrounding […] of selected plant species. […] Approximately fourteen days after treatment, all species were visually compared to untreated controls and rated for response to treatment.
(§2) All plant species were seeded in Woodstown sandy loam soil and grown in a greenhouse. The following species were grown in soil contained in plastic pots (25 cm diameter by 13 cm deep): soybeans, cotton, alfalfa, corn, rice, wheet, sorghum, velvetleaf (Abutilon theophrasti), sesbania (Sesbania exaltata), Cassia (Cassia tora), morningglory (Ipomoea hederacea), jimsonweed (Datura stramonium), cocklebur (Xanthium pensylvanicum), crabgrass (Digitaria spp.), nutsedge (Cyperus rotundus), barnyardgrass (Echinochloa crusgalli), giant foxtail (Setaria faberii) and wild oats (Avena fatua). The following species were grown in soil in a paper cup (12 cm diameter by 13 cm deep): sunflower, sugarbeets, and mustard. All plants were sprayed approximately 14 days after planting.

Morningglory = test: Test B pre-emergence on Fallsington silt loam; format: in vivo, Ipomoea hederacea; settings: 0.06 kg/ha, 28 days
Source text: (§3) Two plastic bulb pans were filled with fertilized and limed Fallsington silt loam soil. One pan was planted with corn, sorghum, Kentucky bluegrass and several grassy weeds. The other pan was planted with cotton, soybeans, purple nutsedge (Cyperus rotundus), and several broadleaf weeds. The following grassy and broadleaf weeds were planted: crabgrass (Digitaria sanguinalis), barnyardgrass (Echinochloa crusgalli), wild oats (Avena fatua), johnsongrass (Sorghum halepense), dallisgrass (Paspalum dilatatum), giant foxtail (Setaria faberii), cheatgrass (Bromus secalinus), mustard (Brassica arvensis), cocklebur (Xanthium pensylvanicum), pigweed (Amaranthus retroflexus), morningglory (Ipomoea hederacea), cassia (Cassia tora), teaweed (Sida spinosa), velvetleaf (Abutilon theophrasti), and jimsonweed (Datura stramonium). A 12.5 cm diameter plastic pot was also filed with prepared soil and planted with rice and wheat. Another 12.5 cm pot was planted with sugarbeets. The above four containers were treated pre- emergence with several test compounds within the scope of the invention.
(§4) Twenty-eight days after treatment, the plants were evaluated and visually rated for response to the chemical treatments utilizing the rating system described previously for Test A. The data are summarized in Table B.

Alfalfa = test: Test F over-the-top soil/foliage treatment; format: in vivo; design: scale not given here; settings: soil/foliage spray; 0.06 kg/ha; ~14 days
Procedure: as §1, §2

Sorghum [2] = test: Test F over-the-top soil/foliage treatment; format: in vivo; design: scale not given here; settings: soil/foliage spray, ~14 days
Procedure: as §1, §2

Barnyardgrass [3] = test: Test F over-the-top soil/foliage treatment; format: in vivo, Echinochloa crusgalli; design: scale not given here; settings: soil/foliage spray, ~14 days
Procedure: as §1, §2

Johnsongrass = test: Test B pre-emergence on Fallsington silt loam; format: in vivo, Sorghum halepense; design: scale not given here; settings: 28 days
Source text: as §3, §4

Crabgrass = test: Test B pre-emergence on Fallsington silt loam; format: in vivo, Digitaria sanguinalis; design: scale not given here; settings: 28 days
Source text: as §3, §4

Rice = test: Test B pre-emergence on Fallsington silt loam; format: in vivo; settings: 28 days
Source text: as §3, §4

Sorghum [4] = test: Test B pre-emergence on Fallsington silt loam; format: in vivo; settings: 0.06 kg/ha, 28 days
Source text: as §3, §4

Wheat = test: Test F over-the-top soil/foliage treatment; format: in vivo, wheet; design: scale not given here; settings: soil/foliage spray, ~14 days
Procedure: as §1, §2

Corn = test: Test F over-the-top soil/foliage treatment; format: in vivo; settings: soil/foliage spray, ~14 days
Procedure: as §1, §2

Sunflower = test: Test F over-the-top soil/foliage treatment; format: in vivo; settings: soil/foliage spray, ~14 days
Procedure: as §1, §2

Sugarbeets = test: Test F over-the-top soil/foliage treatment; format: in vivo; settings: soil/foliage spray; 0.06 kg/ha; ~14 days
Procedure: as §1, §2

Mustard = test: Test F over-the-top soil/foliage treatment; format: in vivo; settings: soil/foliage spray, ~14 days
Procedure: as §1, §2

Giant Foxtail [5] = test: Test F over-the-top soil/foliage treatment; format: in vivo, Setaria faberii; design: scale not given here; settings: soil/foliage spray, ~14 days
Procedure: as §1, §2

Barnyardgrass [6] = test: Test B pre-emergence on Fallsington silt loam; format: in vivo, Echinochloa crusgalli; settings: 28 days
Source text: as §3, §4

Giant Foxtail [7] = test: Test B pre-emergence on Fallsington silt loam; format: in vivo, Setaria faberii; settings: 28 days
Source text: as §3, §4

Dallisgrass = test: Test B pre-emergence on Fallsington silt loam; format: in vivo, Paspalum dilatatum; design: scale not given here; settings: 28 days
Source text: as §3, §4

Nutsedge [8] = test: Test F over-the-top soil/foliage treatment; format: in vivo, Cyperus rotundus; design: scale not given here; settings: soil/foliage spray, ~14 days
Procedure: as §1, §2

Soybean = test: Test B pre-emergence on Fallsington silt loam; format: in vivo, soybeans; settings: 28 days
Source text: as §3, §4

Sesbania = test: Test F over-the-top soil/foliage treatment; format: in vivo, Sesbania exaltata; design: scale not given here; settings: soil/foliage spray; 0.12 kg/ha; ~14 days
Procedure: as §1, §2

Cocklebur = test: Test B pre-emergence on Fallsington silt loam; format: in vivo, Xanthium pensylvanicum; settings: 0.25 kg/ha, 28 days
Source text: as §3, §4

Cheatgrass = test: Test B pre-emergence on Fallsington silt loam; format: in vivo, Bromus secalinus; settings: 28 days
Source text: as §3, §4

Ky. bluegrass = test: Test B pre-emergence on Fallsington silt loam; format: in vivo, Kentucky bluegrass; design: scale not given here; settings: 28 days
Source text: as §3, §4

Wild Oats [9] = test: Test B pre-emergence on Fallsington silt loam; format: in vivo, Avena fatua; design: scale not given here; settings: 28 days
Source text: as §3, §4

Jimsonweed = test: Test F over-the-top soil/foliage treatment; format: in vivo, Datura stramonium; settings: soil/foliage spray; 0.12 kg/ha; ~14 days
Procedure: as §1, §2

Nutsedge [10] = test: Test B pre-emergence on Fallsington silt loam; format: in vivo, Cyperus rotundus; settings: 28 days
Source text: as §3, §4

Pigweed = test: Test B pre-emergence on Fallsington silt loam; format: in vivo, Amaranthus retroflexus; settings: 0.06 kg/ha, 28 days
Source text: as §3, §4

In the case of `CCCS(=O)(=O)Oc1ccccc1S(=O)(=O)NC(=O)Nc1nc(C)nc(OC)n1` [Compound 39, 2-hydroxy-N-[(4-methoxy-6-methyl-1,3,5-triazin-2-yl)aminocarbonyl]benzenesulfonamide, 1-propanesulfonate], the “Wild Oats response rating” value (Wild Oats [1]; 0.007 kg/ha) is reported as 0, the “Wild Oats response rating” value (Wild Oats [1]; 0.03 kg/ha) is reported as 2G and the “Wild Oats response rating” value (Wild Oats [1]; 0.06 kg/ha) is reported as 0. The “Wild Oats response rating” value (Wild Oats [1]; 0.12 kg/ha) was 0, the Morningglory response rating (Morningglory) was 9G and the Alfalfa response rating (Alfalfa) was 10C. The Sorghum response rating (Sorghum [2]; 0.007 kg/ha) was 3G, the Sorghum response rating (Sorghum [2]; 0.03 kg/ha) was 5G and the Sorghum response rating (Sorghum [2]; 0.06 kg/ha) was 0. For the same molecule, the Sorghum response rating (Sorghum [2]; 0.12 kg/ha) was 0, the Barnyardgrass response rating (Barnyardgrass [3]; 0.007 kg/ha) was 2G and the Barnyardgrass response rating (Barnyardgrass [3]; 0.015 kg/ha) was 0. The Barnyardgrass response rating (Barnyardgrass [3]; 0.03 kg/ha) was 3G, the Barnyardgrass response rating (Barnyardgrass [3]; 0.06 kg/ha) was 0 and the Barnyardgrass response rating (Barnyardgrass [3]; 0.12 kg/ha) was 0. It also gave a Johnsongrass response rating (Johnsongrass; 0.06 kg/ha) of 4G, a Johnsongrass response rating (Johnsongrass; 0.25 kg/ha) of 3G and a Crabgrass response rating (Crabgrass; 0.06 kg/ha) of 2G. For the same molecule, the Crabgrass response rating (Crabgrass; 0.25 kg/ha) was 2G, the Rice response rating (Rice; 0.06 kg/ha) was 0 and the Rice response rating (Rice; 0.25 kg/ha) was 0. For the same molecule, the Sorghum response rating (Sorghum [4]) was 4G, the Wheat response rating (Wheat; 0.007 kg/ha) was 0 and the Wheat response rating (Wheat; 0.015 kg/ha) was 0. The Wheat response rating (Wheat; 0.03 kg/ha) was 0, the Wheat response rating (Wheat; 0.06 kg/ha) was 0 and the Wheat response rating (Wheat; 0.12 kg/ha) was 0. The Corn response rating (Corn; 0.007 kg/ha) was 2G, the Corn response rating (Corn; 0.06 kg/ha) was 0 and the Corn response rating (Corn; 0.12 kg/ha) was 0. For the same molecule, the Sunflower response rating (Sunflower; 0.015 kg/ha) was 10C, the Sunflower response rating (Sunflower; 0.06 kg/ha) was 10C and the Sunflower response rating (Sunflower; 0.12 kg/ha) was 10C. For the same molecule, the Sugarbeets response rating (Sugarbeets) was 10C, the Mustard response rating (Mustard; 0.06 kg/ha) was 10C and the Mustard response rating (Mustard; 0.12 kg/ha) was 10C. For the same molecule, the “Giant Foxtail response rating” value (Giant Foxtail [5]; 0.007 kg/ha) was 1G, the “Giant Foxtail response rating” value (Giant Foxtail [5]; 0.03 kg/ha) was 2G and the “Giant Foxtail response rating” value (Giant Foxtail [5]; 0.06 kg/ha) was 0. For the same molecule, the “Giant Foxtail response rating” value (Giant Foxtail [5]; 0.12 kg/ha) was 0, the Barnyardgrass response rating (Barnyardgrass [6]; 0.06 kg/ha) was 4G and the Barnyardgrass response rating (Barnyardgrass [6]; 0.25 kg/ha) was 5G. The “Giant Foxtail response rating” value (Giant Foxtail [7]; 0.06 kg/ha) was 0, the “Giant Foxtail response rating” value (Giant Foxtail [7]; 0.25 kg/ha) was 2G and the Dallisgrass response rating (Dallisgrass; 0.06 kg/ha) was 3G. It also gave a Dallisgrass response rating (Dallisgrass; 0.25 kg/ha) of 0, a Nutsedge response rating (Nutsedge [8]; 0.007 kg/ha) of 5G and a Nutsedge response rating (Nutsedge [8]; 0.015 kg/ha) of 0. For the same molecule, the Nutsedge response rating (Nutsedge [8]; 0.03 kg/ha) was 3G, the Nutsedge response rating (Nutsedge [8]; 0.06 kg/ha) was 0 and the Nutsedge response rating (Nutsedge [8]; 0.12 kg/ha) was 1G. For the same molecule, the Soybean response rating (Soybean; 0.06 kg/ha) was 3G, the Soybean response rating (Soybean; 0.25 kg/ha) was 4G and the Sesbania response rating (Sesbania) was 10C. The Cocklebur response rating (Cocklebur) was 10C, the Cheatgrass response rating (Cheatgrass; 0.06 kg/ha) was 0 and the Cheatgrass response rating (Cheatgrass; 0.25 kg/ha) was 3G. For the same molecule, the “Ky. bluegrass response rating” value (Ky. bluegrass; 0.06 kg/ha) was 2G, the “Ky. bluegrass response rating” value (Ky. bluegrass; 0.25 kg/ha) was 4G and the “Wild Oats response rating” value (Wild Oats [9]; 0.06 kg/ha) was 3G. For the same molecule, the “Wild Oats response rating” value (Wild Oats [9]; 0.25 kg/ha) was 3G, the Jimsonweed response rating (Jimsonweed) was 0 and the Nutsedge response rating (Nutsedge [10]; 0.06 kg/ha) was 4G. For the same molecule, the Nutsedge response rating (Nutsedge [10]; 0.25 kg/ha) was 6G and the Pigweed response rating (Pigweed) was 4G.
